Measured values published in the NIST ThermoML archive (doi:10.1016/j.fluid.2019.112263).
± gives the expanded uncertainty stated by the source.

Key:
[1] = wn = mass fraction of the nth substance listed; details: 100 kPa, Liquid, transient hot wire
[2] = 101.33 kPa, Liquid, transient hot wire

Question: Which results are given for `CCCCCCCCCC(=O)OC` [methyl decanoate] + CCCO?
Answer: thermal conductivity ([1]; 287.88 K, w1 = 0.2022): 0.1527 ± 0.0061 W/m/K; thermal conductivity ([1]; 287.9 K, w1 = 0.4008): 0.1495 ± 0.006 W/m/K; thermal conductivity ([1]; 287.9 K, w1 = 0.5998): 0.1481 ± 0.006 W/m/K; thermal conductivity ([1]; 287.98 K, w1 = 0.7993): 0.1462 ± 0.0059 W/m/K; thermal conductivity ([1]; 297.73 K, w1 = 0.2022): 0.1501 ± 0.006 W/m/K; thermal conductivity ([1]; 297.73 K, w1 = 0.7993): 0.1442 ± 0.0058 W/m/K; thermal conductivity ([1]; 297.77 K, w1 = 0.4008): 0.1473 ± 0.0059 W/m/K; thermal conductivity ([1]; 297.95 K, w1 = 0.5998): 0.1454 ± 0.0058 W/m/K; thermal conductivity ([1]; 307.71 K, w1 = 0.2022): 0.1479 ± 0.0059 W/m/K; thermal conductivity ([1]; 307.75 K, w1 = 0.4008): 0.1453 ± 0.0058 W/m/K; thermal conductivity ([1]; 307.77 K, w1 = 0.7993): 0.142 ± 0.0057 W/m/K; thermal conductivity ([1]; 307.81 K, w1 = 0.5998): 0.1435 ± 0.0058 W/m/K; thermal conductivity ([1]; 317.64 K, w1 = 0.2022): 0.1459 ± 0.0059 W/m/K; thermal conductivity ([1]; 317.69 K, w1 = 0.4008): 0.1426 ± 0.0057 W/m/K; thermal conductivity ([1]; 317.74 K, w1 = 0.7993): 0.1397 ± 0.0056 W/m/K; thermal conductivity ([1]; 317.81 K, w1 = 0.5998): 0.1414 ± 0.0057 W/m/K; thermal conductivity ([1]; 327.55 K, w1 = 0.2022): 0.1433 ± 0.0058 W/m/K; thermal conductivity ([1]; 327.56 K, w1 = 0.5998): 0.1394 ± 0.0056 W/m/K; thermal conductivity ([1]; 327.59 K, w1 = 0.4008): 0.1408 ± 0.0057 W/m/K; thermal conductivity ([1]; 327.67 K, w1 = 0.7993): 0.1374 ± 0.0055 W/m/K; thermal conductivity ([1]; 337.58 K, w1 = 0.2022): 0.1412 ± 0.0057 W/m/K; thermal conductivity ([1]; 337.62 K, w1 = 0.5998): 0.1371 ± 0.0055 W/m/K; thermal conductivity ([1]; 337.68 K, w1 = 0.7993): 0.1351 ± 0.0054 W/m/K; thermal conductivity ([1]; 337.72 K, w1 = 0.4008): 0.138 ± 0.006 W/m/K; thermal conductivity ([1]; 347.56 K, w1 = 0.2022): 0.1382 ± 0.0056 W/m/K; thermal conductivity ([1]; 347.64 K, w1 = 0.4008): 0.136 ± 0.005 W/m/K; thermal conductivity ([1]; 347.65 K, w1 = 0.5998): 0.1348 ± 0.0054 W/m/K; thermal conductivity ([1]; 347.65 K, w1 = 0.7993): 0.1328 ± 0.0053 W/m/K; thermal conductivity ([1]; 357.48 K, w1 = 0.2022): 0.1362 ± 0.0055 W/m/K; thermal conductivity ([1]; 357.48 K, w1 = 0.7993): 0.1299 ± 0.0052 W/m/K; thermal conductivity ([1]; 357.51 K, w1 = 0.5998): 0.1328 ± 0.0053 W/m/K; thermal conductivity ([1]; 357.57 K, w1 = 0.4008): 0.1341 ± 0.0054 W/m/K

Question: Which thermal conductivity ([2]; 276.51 K) does the source give for `CCO` [ethanol] here?
Answer: 0.1719 ± 0.0069 W/m/K

Question: And the thermal conductivity ([2]; 287.55 K)?
Answer: 0.1677 ± 0.0067 W/m/K

Question: And the thermal conductivity ([2]; 297.25 K)?
Answer: 0.1645 ± 0.0066 W/m/K

Question: And the thermal conductivity ([2]; 307.16 K)?
Answer: 0.1617 ± 0.0065 W/m/K

Question: What does the source list for `O` [water]?
Answer: thermal conductivity ([2]; 299.55 K): 0.613 ± 0.025 W/m/K; thermal conductivity ([2]; 309.44 K): 0.6207 ± 0.025 W/m/K; thermal conductivity ([2]; 319.56 K): 0.6399 ± 0.026 W/m/K; thermal conductivity ([2]; 339.38 K): 0.653 ± 0.026 W/m/K; thermal conductivity ([2]; 349.82 K): 0.6704 ± 0.027 W/m/K

Question: What does the source list for `CCCCCCCCCC(=O)OC` [methyl decanoate] + CCCCO?
Answer: thermal conductivity ([1]; 287.9 K, w1 = 0.2001): 0.1497 ± 0.006 W/m/K; thermal conductivity ([1]; 287.95 K, w1 = 0.8003): 0.146 ± 0.0059 W/m/K; thermal conductivity ([1]; 287.98 K, w1 = 0.599): 0.1468 ± 0.0059 W/m/K; thermal conductivity ([1]; 288.35 K, w1 = 0.4002): 0.1476 ± 0.0059 W/m/K; thermal conductivity ([1]; 297.66 K, w1 = 0.4002): 0.1458 ± 0.0059 W/m/K; thermal conductivity ([1]; 297.69 K, w1 = 0.2001): 0.1473 ± 0.0059 W/m/K; thermal conductivity ([1]; 297.81 K, w1 = 0.8003): 0.1436 ± 0.0058 W/m/K; thermal conductivity ([1]; 298 K, w1 = 0.599): 0.1441 ± 0.0058 W/m/K; thermal conductivity ([1]; 307.7 K, w1 = 0.2001): 0.145 ± 0.0058 W/m/K; thermal conductivity ([1]; 307.74 K, w1 = 0.4002): 0.1436 ± 0.0058 W/m/K; thermal conductivity ([1]; 307.81 K, w1 = 0.599): 0.1427 ± 0.0057 W/m/K; thermal conductivity ([1]; 307.86 K, w1 = 0.8003): 0.1412 ± 0.0057 W/m/K; thermal conductivity ([1]; 317.55 K, w1 = 0.2001): 0.1431 ± 0.0058 W/m/K; thermal conductivity ([1]; 317.7 K, w1 = 0.8003): 0.1395 ± 0.0056 W/m/K; thermal conductivity ([1]; 317.74 K, w1 = 0.4002): 0.1418 ± 0.0057 W/m/K; thermal conductivity ([1]; 317.81 K, w1 = 0.599): 0.1403 ± 0.0056 W/m/K; thermal conductivity ([1]; 327.62 K, w1 = 0.2001): 0.1398 ± 0.0056 W/m/K; thermal conductivity ([1]; 327.73 K, w1 = 0.4002): 0.1388 ± 0.0056 W/m/K; thermal conductivity ([1]; 327.78 K, w1 = 0.599): 0.1382 ± 0.0056 W/m/K; thermal conductivity ([1]; 327.78 K, w1 = 0.8003): 0.137 ± 0.0055 W/m/K; thermal conductivity ([1]; 337.59 K, w1 = 0.2001): 0.1379 ± 0.0055 W/m/K; thermal conductivity ([1]; 337.59 K, w1 = 0.4002): 0.1372 ± 0.0055 W/m/K; thermal conductivity ([1]; 337.66 K, w1 = 0.599): 0.136 ± 0.0055 W/m/K; thermal conductivity ([1]; 337.78 K, w1 = 0.8003): 0.1346 ± 0.0054 W/m/K; thermal conductivity ([1]; 347.49 K, w1 = 0.2001): 0.1363 ± 0.0055 W/m/K; thermal conductivity ([1]; 347.58 K, w1 = 0.599): 0.1339 ± 0.0054 W/m/K; thermal conductivity ([1]; 347.73 K, w1 = 0.4002): 0.135 ± 0.0054 W/m/K; thermal conductivity ([1]; 347.8 K, w1 = 0.8003): 0.1318 ± 0.0053 W/m/K; thermal conductivity ([1]; 357.56 K, w1 = 0.2001): 0.1337 ± 0.0054 W/m/K; thermal conductivity ([1]; 357.68 K, w1 = 0.4002): 0.1325 ± 0.0053 W/m/K; thermal conductivity ([1]; 357.71 K, w1 = 0.599): 0.1317 ± 0.0053 W/m/K; thermal conductivity ([1]; 357.76 K, w1 = 0.8003): 0.13 ± 0.0052 W/m/K

Question: Which thermal conductivity ([1]; 287.96 K, w1 = 0.1941) does the source give for `CCCCCCCCCC(=O)OC` [methyl decanoate] + CCCCCO here?
Answer: 0.1495 ± 0.006 W/m/K

Question: And the thermal conductivity ([1]; 287.96 K, w1 = 0.4008)?
Answer: 0.1482 ± 0.006 W/m/K

Question: What about the thermal conductivity ([1]; 287.97 K, w1 = 0.6035) of the same compound?
Answer: 0.1467 ± 0.0059 W/m/K

Question: What about the thermal conductivity ([1]; 288 K, w1 = 0.8002) of the same compound?
Answer: 0.1456 ± 0.0059 W/m/K

Question: And the thermal conductivity ([1]; 297.72 K, w1 = 0.1941)?
Answer: 0.1477 ± 0.0059 W/m/K

Question: And the thermal conductivity ([1]; 297.73 K, w1 = 0.4008)?
Answer: 0.1463 ± 0.0059 W/m/K

Question: And the thermal conductivity ([1]; 297.76 K, w1 = 0.6035)?
Answer: 0.1453 ± 0.0058 W/m/K

Question: And the thermal conductivity ([1]; 297.85 K, w1 = 0.8002)?
Answer: 0.1433 ± 0.0058 W/m/K

Question: And the thermal conductivity ([1]; 307.69 K, w1 = 0.8002)?
Answer: 0.1414 ± 0.0057 W/m/K

Question: What about the thermal conductivity ([1]; 307.72 K, w1 = 0.6035) of the same compound?
Answer: 0.1432 ± 0.0058 W/m/K

Question: What about the thermal conductivity ([1]; 307.74 K, w1 = 0.4008) of the same compound?
Answer: 0.144 ± 0.0058 W/m/K

Question: And the thermal conductivity ([1]; 307.77 K, w1 = 0.1941)?
Answer: 0.1451 ± 0.0058 W/m/K

Question: And the thermal conductivity ([1]; 317.73 K, w1 = 0.4008)?
Answer: 0.142 ± 0.0057 W/m/K

Question: What about the thermal conductivity ([1]; 317.74 K, w1 = 0.8002) of the same compound?
Answer: 0.1396 ± 0.0056 W/m/K

Question: And the thermal conductivity ([1]; 317.81 K, w1 = 0.6035)?
Answer: 0.1406 ± 0.0057 W/m/K

Question: What about the thermal conductivity ([1]; 317.86 K, w1 = 0.1941) of the same compound?
Answer: 0.1433 ± 0.0058 W/m/K

Question: And the thermal conductivity ([1]; 327.58 K, w1 = 0.4008)?
Answer: 0.1405 ± 0.0057 W/m/K

Question: What about the thermal conductivity ([1]; 327.66 K, w1 = 0.6035) of the same compound?
Answer: 0.1386 ± 0.0056 W/m/K

Question: What about the thermal conductivity ([1]; 327.75 K, w1 = 0.8002) of the same compound?
Answer: 0.1366 ± 0.0055 W/m/K

Question: What about the thermal conductivity ([1]; 327.82 K, w1 = 0.1941) of the same compound?
Answer: 0.1408 ± 0.0057 W/m/K

Question: What about the thermal conductivity ([1]; 337.54 K, w1 = 0.8002) of the same compound?
Answer: 0.1347 ± 0.0054 W/m/K

Question: And the thermal conductivity ([1]; 337.6 K, w1 = 0.1941)?
Answer: 0.1391 ± 0.0056 W/m/K

Question: What about the thermal conductivity ([1]; 337.61 K, w1 = 0.6035) of the same compound?
Answer: 0.1361 ± 0.0055 W/m/K

Question: And the thermal conductivity ([1]; 337.76 K, w1 = 0.4008)?
Answer: 0.1373 ± 0.0055 W/m/K

Question: What about the thermal conductivity ([1]; 347.58 K, w1 = 0.4008) of the same compound?
Answer: 0.1356 ± 0.0055 W/m/K

Question: And the thermal conductivity ([1]; 347.61 K, w1 = 0.8002)?
Answer: 0.1315 ± 0.0053 W/m/K

Question: What about the thermal conductivity ([1]; 347.79 K, w1 = 0.1941) of the same compound?
Answer: 0.1367 ± 0.0055 W/m/K

Question: What about the thermal conductivity ([1]; 347.85 K, w1 = 0.6035) of the same compound?
Answer: 0.1336 ± 0.0054 W/m/K

Question: And the thermal conductivity ([1]; 357.66 K, w1 = 0.4008)?
Answer: 0.1333 ± 0.0054 W/m/K

Question: What about the thermal conductivity ([1]; 357.7 K, w1 = 0.6035) of the same compound?
Answer: 0.132 ± 0.0053 W/m/K

Question: And the thermal conductivity ([1]; 357.75 K, w1 = 0.8002)?
Answer: 0.1299 ± 0.0052 W/m/K

Question: And the thermal conductivity ([1]; 357.76 K, w1 = 0.1941)?
Answer: 0.1345 ± 0.0054 W/m/K
